Experimental data taken from patent US20060110456A1, “Method for biocidal and/or biostatic treatment and compositions therefor” (NATIONAL UNIVERSITY OF SINGAPORE, priority 2004, published 2006).
Entries after “also recorded” stand apart in the source; their conditions may differ. Structures can show the parent of a compound that is named as a salt.

These molecules were tested on barnacle nauplii (assay: Toxicity of drugs under different light conditions and over time (stability in seawater)). Details: 25 ug ml^−1 seawater suspension, 12 h light and 12 h dark, after 4 weeks.
Format: in vivo, Balanus amphitrite
Procedure: Preliminary experiments were carried out to examine the chemical stability of the drugs. 25 ug ml^−1 seawater suspensions of the drugs were prepared, in 3 replicates per condition, 3 replicate tubes containing 15 ml per test tube per prepared for each treatment type. The treatments consisted of: • i. Dark condition: tubes were wrapped in aluminium foil and kept in the dark at all times • ii. 12L:12D condition, where the tubes were subject incubated in a plant growth chamber with light regime of 12 hours light and 12 hours dark. • iii. UV treated tubes were subject to UV for half an hour. […] Sets (1) & (2) were tested at week 0, 1, 2 and after 4 weeks. “UV” set is only assayed after UV treatment. […] Effect of UV

SMILES | Change in toxicity on ageing in seawater, 12L:12D condition
CN1CCN(CCCN2c3ccccc3Sc3ccc(Cl)cc32)CC1 [PCZ, prochlorperazine maleate] | marked decrease in toxicity
Cc1cc2c(s1)Nc1ccccc1N=C2N1CCN(C)CC1 [ZPX, olanzapine] | marked decrease in toxicity
Cc1nccn1CC1CCc2c(c3ccccc3n2C)C1=O (centres unmarked) [ZFN, ondansetron hydrochloride] | increased in toxicity
CNCCC(Oc1ccc(C(F)(F)F)cc1)c1ccccc1 (centres unmarked) [PZC, fluoxetine hydrochloride] | did not show an appreciable change

Same assay, conditions: 25 ug ml^−1 seawater suspension, UV for half an hour

SMILES | Effect of UV on drug toxicity to barnacle nauplii
Cc1nccn1CC1CCc2c(c3ccccc3n2C)C1=O (centres unmarked) [ZFN, ondansetron hydrochloride] | reduction in toxicity under UV
CNCCC(Oc1ccc(C(F)(F)F)cc1)c1ccccc1 (centres unmarked) [PZC, fluoxetine hydrochloride] | some increase in toxicity

Same assay, conditions: 25 ug ml^−1 seawater suspension, after 4 weeks

SMILES | Change in toxicity on ageing in seawater, dark condition
CN1CCN(CCCN2c3ccccc3Sc3ccc(Cl)cc32)CC1 [PCZ, prochlorperazine maleate] | appreciable decrease in toxicity

The molecules below were run on Balanus amphitrite stage II naupliar larvae (assay: not given). Details: barnacle nauplii, 22 to 24 hours; concentration that caused 50% mortality.
Procedure: Pharmaceuticals from the respective manufacturers were treated in the following way. A pill containing a known amount of active ingredient (as stated in product information) was ground in a mortar and pestle and a suspension of 2 mg ml^−1 generated in de-ionized water. This stock solution is stored at −20° C. in 4 ml amber screw cap vials. For the bioassays, 250 ul of stock solution is added to 10 ml of 1 um filtered seawater. This suspension was then sonicated for 10 minutes. Serial dilutions of this 50 μg ml^−1 seawater solution, or suspension, with seawater was done to generate the required range of concentrations.
Stage II naupliar larvae used in tests were obtained from Balanus amphitrite adults collected from inter-tidal rock walls at Kranji mangrove, Singapore. Larvae were collected from a container of adults by attraction to a point source of light and transferred to 500 ml of fresh seawater. Next, larvae were re-concentrated with a fiber optic light and added to assays.
Duplicate assays were conducted in 2 ml micro-centrifuge tubes (Axygen MCT-200-C) in 1.5 ml of filtered seawater for 22 to 24 hours. The assays were repeated for confirmation. There were four controls (vehicle only, 0 μg ml^−1), and 2 tubes of each for each test concentration. The assay was initiated by addition of barnacle nauplii in 50 to 100 μl of seawater.
After 22 to 24 hours of incubation at 25-27° C., solutions containing test animals were transferred to a Bogorov tray and scored as living or dead. Moribund larvae were scored as dead. Results were confirmed by repeating the assay. […] If data were not appropriate for probit analysis, the LC50 was estimated from graphed data.

SMILES | LD50 [ng/mL]
CN1CCN(CCCN2c3ccccc3Sc3ccc(Cl)cc32)CC1 [PCZ, prochlorperazine maleate] | 3.54
Cc1cc2c(s1)Nc1ccccc1N=C2N1CCN(C)CC1 [ZPX, olanzapine] | 505.82
Cc1nccn1CC1CCc2c(c3ccccc3n2C)C1=O (centres unmarked) [ZFN, ondansetron hydrochloride] | 468.96

Same assay, conditions: in vivo

SMILES | Toxicity to barnacle nauplii and cyprids
CN1CCN(CCCN2c3ccccc3Sc3ccc(Cl)cc32)CC1 [PCZ, prochlorperazine maleate] | very toxic to nauplii and cyprids

The molecules below were run on Bugula neritina larvae (assay: Bioassay against bryozoan larvae). Details: crude rank, best (1) to worst (8).
Format: in vivo
Procedure: Bugula neritina (Phylum Bryozoa, Class Gymnolaemata, Order Cheilostomatida) is a cosmopolitan species of bryozoan, commonly found in most marine fouling communities. The larvae are brooded in ovicells found on the stem of the colonies. When released, the larva will settle quickly on most surfaces, within a few minutes. At 24° C., the settled larvae forms the one-cell ancestrula, and after 48 hours, the lophophore has developed and extended for feeding.
Adult colonies of Bugula neritina were collected from fouling communities growing on the submerged pontoons on a floating fish farm located off Changi, Singapore. Adult animals were maintained in the open-circulation aquarium at St John's island marine laboratory, Singapore. The adults were kept in total darkness for 24 hours. On exposure to light, larvae were released after half an hour. […] Because the larvae will settle quickly, larvae were pipetted directly into test wells in 1 ml of seawater using a graduated glass pipette.
4 replicates were done for each treatment. After 24 hours, larvae were scored as settled, swimming or dead/deformed. The assay plates were usually kept for another 24 hours and checked again, to ascertain that the settled larvae had developed into viable colonies with lophophores. Two trials were repeated for each compound.
Bioassays were carried out using the method described above, in July 2003 during the peak spawning season for Bugula.

SMILES | Prevention of settlement of Bugula larvae
CN1CCN(CCCN2c3ccccc3Sc3ccc(Cl)cc32)CC1 [PCZ, prochlorperazine maleate] | 2
Cc1cc2c(s1)Nc1ccccc1N=C2N1CCN(C)CC1 [ZPX, olanzapine] | 6
Cc1nccn1CC1CCc2c(c3ccccc3n2C)C1=O (centres unmarked) [ZFN, ondansetron hydrochloride] | 8
CNCCC(Oc1ccc(C(F)(F)F)cc1)c1ccccc1 (centres unmarked) [PZC, fluoxetine hydrochloride] | 3

What follows are molecules tested on biofilm bacteria (strains 4, 9, 14, 20, 27, 28) (assay: Effect of pharmaceuticals on adhesion of bacteria to plastic / biofilm formation on NTC and TC plates). Details: 25 ug ml−1; NTC = untreated polystyrene, TC = tissue-culture treated; strains 4, 9, 14, 20, 27, 28.
Format: cell-based, marine bacteria isolated from Singapore fouling communities
Procedure: Commercial forms of pharmaceuticals were used as previously described. […] These samples were sonicated for at least 1 min and these fine suspensions were used as initial stock solutions.
For studies of bacterial adhesion, the pharmaceuticals were first sterilized by soaking in absolute alcohol (Merck) for half an hour. Ethanol was removed by air-drying with air passed through 0.25 μm pore size syringe filter (Sartorius, Germany). Stock solutions were concentrations of 100 μg ml−1 in SDI.
The effect of pharmaceuticals on bacterial adhesion was analyzed using a modified microplate method adapted from Shea and Williamson (1990). This method employs a combination of staining attached bacteria with crystal violet, releasing the stain with sodium desoxycholate, and measuring the resulting absorbance of the crystal violet.
Detailed results for six selected strains are presented here: strains 4, 9, 14, 20, 27, 28. The bacterial strains were grown in Marine Broth (Pronadisa, Spain) overnight, in the dark, at 28° C. on a rotary shaker (150 rpm) in 5 ml centrifuge tubes (Falcon). Cells were harvested by centrifugation (1500×g, 10 min) and resuspended in sterile seawater (SSW). SSW was prepared by filtering seawater through a 0.2 μm pore size filter (Sartorius) followed by autoclaving. The cells were centrifuged and resuspended once more in SSW. The concentration of resuspended cells was adjusted to A600=1.0 using a spectrophotometer (Beckman DU530, USA).
Flat bottom 96 well polystyrene (hydrophobic, Falcon 351172) (=NTC) and tissue-culture treated polystyrene (hydrophilic, Falcon 353072) (=TC) microplates were used in the analyses. Each test was performed in triplicate. Two sets of experiments were conducted. […] For the control and blank wells, 25 ul of SDI were added. For wells containing pharmaceuticals, 25 ul of the respective pharmaceutical at a concentration of 100 ug ml−1 were added. This was immediately followed by the addition of 75 ul of bacterial suspension. To blanks were added 75 ul of SSW.
The bacterial cells in suspension were allowed to attach for 2 h at 28° C. Unattached cells were removed by aspiration using a plate washer (Tecan, Austria) and wells were rinsed three times with 200 ul of SSW each time. The attached cells were stained with 200 ul of crystal violet solution (0.1% w/v in deionized water) in each well for 5 min. After removing the stain using the plate washer, the wells were rinsed twice with 300 ul of SDI each time. Sodium desoxycholate (200 ul) solution (2% w/v in deionized water) was added to each well to extract the crystal violet from the attached stained cells for 10 min. The absorbance of the crystal violet was read at 590 nm using a microplate reader (Sunrise, Tecan, Austria).
Results of the adhesion assay were obtained by the difference in absorbance readings between wells containing bacterial cells and the mean of absorbance of those containing the SSW only. The effect of the pharmaceuticals on bacterial adhesion was determined by the examining the differences in absorbance between the wells containing the pharmaceuticals+bacteria and the bacteria. The significance was compared using T-test.

SMILES | Effect on formation of bacterial biofilms on NTC and TC plates
CN1CCN(CCCN2c3ccccc3Sc3ccc(Cl)cc32)CC1 [PCZ, prochlorperazine maleate] | reduced biofilm formation only for strains 4 and 27; also recorded: active against strain 4, and a slight effect on strain 27
Cc1cc2c(s1)Nc1ccccc1N=C2N1CCN(C)CC1 [ZPX, olanzapine] | prevented biofilm formation for all 6 strains in the NTC plates, and slightly reduced the biofilm formation in strains 4 on the TC plates; also recorded: marked reduction of biofilm growth for all strains on NTC, but only a slight reduction for strain 4 on TC

Same assay, conditions: 25 ug ml−1; NTC = untreated polystyrene, TC = tissue-culture treated; strains 4, 9, 14, 20, 27, 28; hydrochloride

SMILES | Effect on formation of bacterial biofilms on NTC and TC plates
Cc1nccn1CC1CCc2c(c3ccccc3n2C)C1=O (centres unmarked) [ZFN, ondansetron hydrochloride] | reduced bacterial adhesion of the 6 strains to the NTC plates; also recorded: only slight activity (p<0.1) against strain 4 on the TC plates; also recorded: marked reduction of biofilm growth for most on NTC but not on TC
CNCCC(Oc1ccc(C(F)(F)F)cc1)c1ccccc1 (centres unmarked) [PZC, fluoxetine hydrochloride] | slight effect on biofilm formation in strain 4 on both TC and NTC plates; also recorded: slight effect on strain 4 (p<0.1)

Same assay, conditions: crude rank, best (1) to worst (8)

SMILES | Prevention of formation of biofilm
CN1CCN(CCCN2c3ccccc3Sc3ccc(Cl)cc32)CC1 [PCZ, prochlorperazine maleate] | 4
Cc1cc2c(s1)Nc1ccccc1N=C2N1CCN(C)CC1 [ZPX, olanzapine] | 1
Cc1nccn1CC1CCc2c(c3ccccc3n2C)C1=O (centres unmarked) [ZFN, ondansetron hydrochloride] | 2
CNCCC(Oc1ccc(C(F)(F)F)cc1)c1ccccc1 (centres unmarked) [PZC, fluoxetine hydrochloride] | 5
